According to paper PMC6882492, “Synthesis and biological evaluation of novel thienopyrimidine derivatives as diacylglycerol acyltransferase 1 (DGAT-1) inhibitors” (Journal of Enzyme Inhibition and Medicinal Chemistry, 2019):

Key:
[1] = target: T1, human recombinant DGAT1 enzyme expressed in insect cells (SF9 cells) (Homo sapiens, UniProt O75907); assay: DGAT-1 inhibition assay (IC50), SF9 microsomes; type: biochemical; settings: SF9 insect cells expressing human DGAT-1
T1 construct: made in house; host or cells: SF9 insect cells (microsomal membrane fraction)
T1 sequence (O75907 1-488): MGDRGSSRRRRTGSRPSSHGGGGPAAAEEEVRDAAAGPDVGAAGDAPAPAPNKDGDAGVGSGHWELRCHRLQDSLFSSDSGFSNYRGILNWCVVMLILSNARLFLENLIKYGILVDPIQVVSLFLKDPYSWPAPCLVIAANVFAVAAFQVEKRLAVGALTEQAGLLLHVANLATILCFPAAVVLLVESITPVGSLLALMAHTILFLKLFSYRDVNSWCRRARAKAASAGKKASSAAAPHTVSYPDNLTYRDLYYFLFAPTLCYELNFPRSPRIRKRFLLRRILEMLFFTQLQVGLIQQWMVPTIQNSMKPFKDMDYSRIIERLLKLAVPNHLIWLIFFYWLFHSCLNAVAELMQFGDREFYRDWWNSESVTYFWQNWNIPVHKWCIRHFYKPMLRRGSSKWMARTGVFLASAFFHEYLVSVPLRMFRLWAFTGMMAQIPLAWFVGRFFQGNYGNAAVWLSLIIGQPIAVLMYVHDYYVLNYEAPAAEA
Method: The activity of DGAT-1 inhibitors in vitro was evaluated by using a human recombinant DGAT1 enzyme expressed in insect cells (SF9 cells). SF9 cells were homogenised by washing them with DPBS (Dulbecco’s phosphate-buffered saline) and then suspending cell pellets with a tris buffer (250 mM sucrose; 10 mM Tris-HCl [pH 7.4]; proteinase inhibitor). The resulting mixture was centrifugally separated at 10,000 × g for 30 min to remove the cell debris remaining in the lower layer thereof, and was centrifugally separated at 100,000 × g for 60 min to obtain a microsomal membrane. Further, membrane fractions were resuspended by the tris buffer, and then stored at -80 °C.
The activity of DGAT1 was measured according to the reported method. Specifically, 0.0001 – 10 μΜ (final concentration, FC) of the test compounds were cultured at room temperature (25 °C) for 15 min with a […] of SF9 microsomal protein solution and 100 mM of MgCl2 solution, and were then further cultured at room temperature (25 °C) for 30 min after the addition of 100 μΜ (FC in 12.5% EtOH) of 1,2-dioleyl-sn-glycerol and 30 μΜ (final conc.) of [14]C-oleyl coenzyme A. The reaction was completed by the addition of 300 μL of a mixed solution of 2-propanol/heptane (7:1), and radioactive triglyceride was separated from an organic solvent layer by using 200 μL of heptane and 200 μL of a 0.1 M carbonate buffer (pH 9.5). The amount of triglyceride was measured by liquid scintillography (Perkin Elmer, USA) after mixing with an organic solvent and an equivalent amount of scintillation solvent (MicroScint-O, Perkin Elmer, USA). The effects of inhibiting DGAT1 were calculated as percent in comparison with a control material.
The activities of synthesised compounds were evaluated using SF9 insect cells expressing human DGAT-1[22]. A potent DGAT-1 inhibitor, LCQ-908 (2 or pradigastat) was used as a positive control. […] The calculated lowest energy conformation model of 14c provided that the distance between the terminal carboxylic acid and NH of urea was over 16 Å, which may result in reduced activity. […]

[2] = Pharmacokinetic profile in ICR mice; settings: mouse, in vivo
hDGAT1 = target: T2, hDGAT1 (Homo sapiens, UniProt O75907); assay: Enzymatic assay hDGAT1; type: biochemical
T2 sequence (O75907 1-488): T1 sequence (O75907 1-488)
From the text: (§1) ACATs have sequence homology to DGAT-1 and play essential roles in cholesterol homeostasis. 17b was not explored in the enzymatic assays due to its poor pharmacokinetic profile.

hDGAT2 = target: T3, hDGAT2 (Homo sapiens, UniProt Q96PD7); assay: Enzymatic assay hDGAT2; type: biochemical
T3 sequence (Q96PD7 1-388): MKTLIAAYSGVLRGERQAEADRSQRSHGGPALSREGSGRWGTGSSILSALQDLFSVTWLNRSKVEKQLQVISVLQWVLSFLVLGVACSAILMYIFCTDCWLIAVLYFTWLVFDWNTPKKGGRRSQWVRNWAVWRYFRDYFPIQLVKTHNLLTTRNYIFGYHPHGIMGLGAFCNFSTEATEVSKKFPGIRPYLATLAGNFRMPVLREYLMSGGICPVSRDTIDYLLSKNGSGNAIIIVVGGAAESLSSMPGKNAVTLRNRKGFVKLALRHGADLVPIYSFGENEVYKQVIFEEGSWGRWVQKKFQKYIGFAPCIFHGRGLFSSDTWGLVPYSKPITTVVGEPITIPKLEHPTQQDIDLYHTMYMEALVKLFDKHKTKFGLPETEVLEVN
From the text: as §1

hACAT1 = target: T4, hACAT1 (Homo sapiens, UniProt P35610); assay: Enzymatic assay hACAT1; type: biochemical
T4 sequence (P35610 1-550): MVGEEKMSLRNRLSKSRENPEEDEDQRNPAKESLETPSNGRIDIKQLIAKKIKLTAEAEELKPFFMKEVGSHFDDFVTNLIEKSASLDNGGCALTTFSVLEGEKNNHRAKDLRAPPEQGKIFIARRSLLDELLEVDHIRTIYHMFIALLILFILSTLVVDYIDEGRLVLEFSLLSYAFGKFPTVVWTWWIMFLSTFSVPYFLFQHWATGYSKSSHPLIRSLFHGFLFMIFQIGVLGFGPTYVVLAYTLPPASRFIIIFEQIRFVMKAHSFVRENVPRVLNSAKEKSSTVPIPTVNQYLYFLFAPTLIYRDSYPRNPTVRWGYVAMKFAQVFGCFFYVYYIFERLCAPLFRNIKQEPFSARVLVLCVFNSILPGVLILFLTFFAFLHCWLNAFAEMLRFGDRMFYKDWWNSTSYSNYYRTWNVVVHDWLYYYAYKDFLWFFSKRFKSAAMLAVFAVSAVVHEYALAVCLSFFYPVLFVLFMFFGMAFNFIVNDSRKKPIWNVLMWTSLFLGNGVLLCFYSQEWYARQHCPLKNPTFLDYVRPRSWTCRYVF
From the text: as §1

hACAT2 = target: T5, hACAT2 (Homo sapiens, UniProt O75908); assay: Enzymatic assay hACAT2; type: biochemical
T5 sequence (O75908 1-522): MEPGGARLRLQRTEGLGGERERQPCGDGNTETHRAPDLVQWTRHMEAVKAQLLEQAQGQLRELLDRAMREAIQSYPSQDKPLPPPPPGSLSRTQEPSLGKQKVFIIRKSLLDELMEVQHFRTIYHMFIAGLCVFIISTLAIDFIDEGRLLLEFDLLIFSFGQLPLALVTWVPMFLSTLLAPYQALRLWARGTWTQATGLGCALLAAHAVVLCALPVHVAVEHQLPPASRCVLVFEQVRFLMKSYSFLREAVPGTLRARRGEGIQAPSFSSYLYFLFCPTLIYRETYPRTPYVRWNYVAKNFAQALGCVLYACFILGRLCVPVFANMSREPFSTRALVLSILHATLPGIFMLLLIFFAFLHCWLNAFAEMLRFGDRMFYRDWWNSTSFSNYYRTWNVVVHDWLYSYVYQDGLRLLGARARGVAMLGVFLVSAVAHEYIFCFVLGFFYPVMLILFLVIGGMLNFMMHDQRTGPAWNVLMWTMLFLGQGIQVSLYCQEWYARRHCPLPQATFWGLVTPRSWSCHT
From the text: as §1

[3] = Tissue distribution in mice; type: in vivo; settings: ICR mice, 30 mg/kg oral, n = 3
Method: In addition, tissue distribution of 17a was investigated. 17a was orally administered to mice at 30 mg/kg, and 2 was administrated as a positive control (Figure 5). […] Significant activity of 17a in the OLTT appeared to result from high concentration in the small intestine, even though bioavailability of 17a was not great in mice.
Figure 5. Tissue distribution of 17a in mice. 17a and 2 were orally administered to ICR mice at 30 mg/kg (n = 3). (a) AUC values of 17a and 2 in indicated tissues. […] Data represent mean value. (b) Tissue-to-plasma (T/P) ratio of 17a and 2. S.I.: small intestine, L.I.: large intestine.

IC50 (hDGAT1) | IC50 (hDGAT2) | IC50 (hACAT1) | IC50 (hACAT2) | SMILES | IC50 [1] | bioavailability ([2]; oral 10 mg/kg vs iv 3 mg/kg) | Cmax ([2]; oral 10 mg/kg, n = 3) | half-life ([2]; oral 10 mg/kg, n = 3) | AUC ([2]; oral 10 mg/kg, n = 3, read-out: AUC 0∼24) | Tissue distribution (concentration levels in tissues) [3]
 |  |  |  | O=C([O-])C[C@H]1CC[C@H](c2csc3c(-c4ccc(NC(=O)Nc5cccc(Cl)c5)cc4)ncnc32)CC1.[Na+] [Compound 17b, Sodium trans-2–(4–(4-(4-(3–(3-chlorophenyl)ureido)phenyl)thieno[3,2-d]pyrimidin-7-yl)cyclohexyl)acetate] | 89 nM | 0.7% | 74.8 ng/mL | 5.2 h | 234 ng·h/mL | 
57 nM | > 10000 nM | > 10000 nM | > 10000 nM | O=C(O)C[C@H]1CC[C@H](c2ccc(-c3ccc(Nc4ccc(C(F)(F)F)nc4)cn3)cc2)CC1 [Compound 2, pradigastat, reference compound] | 157 nM |  |  |  |  | much high concentrations in the liver and large intestine
